The numbers were not newly measured in patent publication US20260263394A1, “MEDICAL PATCH […] […] AGENT” (LTS LOHMANN THERAPIE-SYSTEME AG, priority 2023, published 2026), which cites them from elsewhere.

For series [1] the following is noted: sub-microgram (less than 1/1,000,000th of a gram) quantities, oral.
The target of series [2] is TRPV1 (Homo sapiens, UniProt Q8NER1). The following applies: relative to capsaicin.
Sequence of TRPV1 (Q8NER1 whole entry, species assumed): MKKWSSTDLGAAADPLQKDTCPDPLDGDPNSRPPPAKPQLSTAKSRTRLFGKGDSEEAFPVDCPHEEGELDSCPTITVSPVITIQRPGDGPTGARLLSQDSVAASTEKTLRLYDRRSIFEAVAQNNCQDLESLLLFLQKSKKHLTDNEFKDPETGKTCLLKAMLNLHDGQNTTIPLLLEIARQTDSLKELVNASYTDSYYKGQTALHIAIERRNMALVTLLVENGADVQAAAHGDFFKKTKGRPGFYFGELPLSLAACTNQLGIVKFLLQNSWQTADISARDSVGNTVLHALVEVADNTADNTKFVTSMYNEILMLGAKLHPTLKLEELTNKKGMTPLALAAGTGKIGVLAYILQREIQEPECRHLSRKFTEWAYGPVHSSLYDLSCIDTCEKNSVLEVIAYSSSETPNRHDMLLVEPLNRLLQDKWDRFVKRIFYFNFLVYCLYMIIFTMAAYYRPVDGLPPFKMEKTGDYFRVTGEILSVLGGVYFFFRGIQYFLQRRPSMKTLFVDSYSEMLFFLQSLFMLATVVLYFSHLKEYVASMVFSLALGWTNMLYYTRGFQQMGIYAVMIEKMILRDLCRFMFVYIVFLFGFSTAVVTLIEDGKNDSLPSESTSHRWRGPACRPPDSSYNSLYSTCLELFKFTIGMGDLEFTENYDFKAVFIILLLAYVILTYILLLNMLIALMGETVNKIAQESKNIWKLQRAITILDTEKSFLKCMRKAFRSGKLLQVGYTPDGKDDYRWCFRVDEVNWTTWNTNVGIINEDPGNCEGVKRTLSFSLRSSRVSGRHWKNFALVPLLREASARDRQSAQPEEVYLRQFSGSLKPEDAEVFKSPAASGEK

As for `C=C(C)[C@]12C[C@@H](C)[C@@]34O[C@@](Cc5ccccc5)(O[C@@H]1[C@@H]3C=C(COC(=O)Cc1ccc(O)c(OC)c1)C[C@]1(O)C(=O)C(C)=C[C@@H]41)O2` [Resiniferatoxin, [(1R,2R,6R,10S,11R,13R, 15R, 17R)-13-benzyl-6-hydroxy-4,17-dimethyl-5-oxo-15-(prop-1-en-2-yl)-12,14,18-trioxapentacyclo [11.4.1.0^1,10.0^2,6.0^11,15]octadeca-3,8-dien-8-yl]methyl 2-(4-hydroxy-3-methoxyphenyl)acetate], the “effect when ingested orally” value in series [1] was “severe burning pain”. The “times higher binding affinity for TRPV1 than capsaicin” value in series [2] is on record as “about 500 times”.
